“Also recorded” adds a separate entry of the source.
B1: shFOS1: AAV9 shRNA targeting c-Fos, SEQ ID NO: 17 (nucleic acid)
DNA: GATCCGGCGGAGACAGATCAACTTGAAGAAGCTTGTTCAAGTTGATCTGTCTCCGCCTTTTTTT

Key:
mice = assay: Response to noxious heat (metal probe heated to 58° C. applied to paw, paw withdrawal latency); assay type: in vivo, mouse; settings: for responsiveness to noxious heat: WT mice, 1 hour following i.p. injection, sulmazole 0.5 mg/kg, sulfamethizole 1.25 mg/kg (FIG. 8A)
Description: Pain Models—Responses to noxious heat were assessed by applying a metal probe heated to 58° C. to a forelimb paw, while holding the animal. Paw withdrawal latency was timed, typically ranging between 2-4 seconds in wild-type animals. If the paw was not withdrawn within 20 seconds the assay was terminated. The test was repeated three times for each animal, with at least 20 minute intervals between repeats. Heat sensitivity was also assessed using the hot plate test [L. Urien et al., Sci Rep 7, 43493 (2017)]. To this end, mice were placed individually in a 20 cm high Plexiglas box on a metal surface set at 52, 55 or 58° C., and the latency to initiate a nociceptive response (licking, hind paws shaking, jumping) was monitored by videotape. Mice were removed from the plate immediately after a nociceptive response.

SNI mice [1] = assay: Spared nerve injury (SNI) model of neuropathic pain, paw withdrawal threshold (PWT) by Von Frey test; assay type: in vivo, mouse; settings: for paw withdrawal threshold (PWT) by the Von Frey test: SNI, 60 days following establishing the model, two i.p. injections with 1 week interval, sulmazole 1.25 mg/kg, sulfamethizole 3.12 mg/kg, vs vehicle (FIG. 8B); for relief in the SNI model of neuropathic pain: intraperitoneal injection at both early and late stages of chronic pain (FIGS. 8B, 21A-B, 22A-B); for mechanosensitivity, paw withdrawal threshold by Von Frey test, dose dependence: one hour following i.p. treatment, one week following establishing SNI (FIGS. 21A-B); for mechanosensitivity, Von Frey tests, time dependence: one week after SNI, 1, 5 and 24 hours following i.p. injection (FIGS. 22A-B)
Description: (§1) Chronic neuropathic pain was assessed using the spared nerve injury (SNI) model^13. Mice were anaesthetized with Ketamine/Xylazine (10 mg/kg body weight, intraperitoneal). The skin on the lateral surface of the thigh was incised and a section was made directly through the biceps femoris muscle in order to expose the sciatic nerve and its three terminal branches: the sural, common peroneal and tibial nerves. The SNI procedure comprised an axotomy and ligation of the tibial and common peroneal nerves leaving the sural nerve intact. The peroneal and the tibial nerves were tight-ligated and sectioned distal to the ligation. […] Following, mice were evaluated over a period of three months.
(§2) Von Frey tests of sensitivity to mechanical stimuli were conducted as previously described [Marvaldi et al. Dev Neurobiol 75, 217 (2015)]. Briefly, mice were placed in acrylic chambers suspended above a wire mesh grid and allowed to habituate to the testing apparatus for one hour prior to experiments. When the mouse was calm, the von Frey filaments were pressed against the plantar surface of the paw until the filament buckled and held for a maximum of 3 seconds. A positive response was noted if the paw was sharply withdrawn on application of the filament. Testing began with filament target force 13.7 milliNewtons and progressed according to an up-down method. 2 gram Von Frey filaments were used to assess sensitivity to noxious mechanical stimulation, scoring mice responses as follows: 0, no response; 1, visible signs of discomfort without leg withdrawal; 2, withdrawal of the leg.

[2] = test system: c-Fos nuclear localization in DRG neurons; assay: c-Fos nuclear localization in cultured DRG neurons (immunostaining, quantified); assay type: cell-based, mouse; settings: sulmazole 0.5 mg/kg; for c-Fos nuclear accumulation: importin α3 null DRG neurons cultured following SNI, sulfamethizole 1.25 mg/kg (FIG. 9); for c-Fos nuclear localization: wild type DRG neurons cultured following SNI, sulfamethizole 1.25 mg/kg, vs vehicle (FIGS. 8C-D)
Description: Histology—Lumbar sections of the spinal cord including Dorsal root ganglia (DRGs) were pre-fixed for 6 minutes before dissection of spinal cord and associated DRGs. Lumbar DRG (L4, unless otherwise indicated) and/or spinal cord were then fixed for six hours in 4% PFA in PBS, washed in PBS and equilibrated in 20% w/v sucrose in PBS prior to serial cryo-sectioning at a thickness of 10-20 μm. Following, one set for each DRG was processed for immunostaining. Briefly, sections were rehydrated in PBS, blocked and permeabilized with 15% Donkey Serum, 5-10% BSA, 0.3% Triton X-100 in PBS for 1-3 hours and incubated overnight at 4° C. with Mouse anti-βIII tubulin (TuJ1, abcam, ab18207), Rabbit anti-cFos (Millipore, Ab5, 4-17), Mouse anti-cFOS (Millipore Ab5 4-17, IF 1:500), Mouse anti-Jun (BD transduction Laboratories, IF 1:1000), Rabbit TRPV1 (Alomone ACC-030, 1:500), Rabbit anti-GFP (abcam, ab6556, IF & WB1:500), Goat anti-CGRP (AbD SEROTEC, 1720-9007), MBP (Abcam ab7349, IF 1:500) or Rabbit anti-importin α3 (1:2000) antibodies. On the following day, sections were washed three times in PBS prior to incubation for 2 hours with different combinations of donkey anti-chicken/rabbit/mouse secondary antibodies (Alexa Fluor 647, 594, 488; Jackson Immunoresearch, 1:1000). Following, coverslips or slides were washed and mounted with Flouromount-G™.
Image processing—Images were acquired on a confocal laser-scanning microscope (Olympus FV1000, 60× oil-immersion objective Olympus UPLSAPO-NA 1.35) using Fluoview (FV10-ASW 4.1) software. DRG sections were scanned using camera settings identical for all genotypes in a given experiment. Images were imported into the Fiji version (www(dot)//fiji(dot)sc) of ImageJ for threshold subtraction and subsequent analyses as detailed below.
Fluorescence Intensity Analysis: Line scan analysis of fluorescence intensity was carried out on high-resolution confocal z-stack from DRG sections to determine fluorescence intensity of c-FOS and importin α3 over cell regions of interest in-vivo. Briefly, the measurement (in pixels) was effected using the ImageJ drawing tool to draw a line across a neuronal segment covering both cytoplasm and nucleus. All collected traces were then averaged for each experimental group. For comparison of nuclear and cytoplasmic staining intensity 8-bit images of either DRG sections or DRG cultured neurons were processed using the Fiji software. The integrated density was calculated as the sum of the values of the pixels in both cytoplasmic and nuclear regions of interest determined on the basis of TuJ-1, CGRP, TRPV1 or DAPI staining, respectively.
Neuronal cultures—Adult mouse DRG neurons were cultured as previously described [Perry et al. Neuron 75, 294 (2012)], with plating on poly-L-lysine and laminin coated plates or glass cover slips for 24 hours. Where required, L3-L5 DRG neurons from the uninjured side served as controls for cultures from SNI mice.

SNI mice [3] = assay: Noxious mechanosensitivity of SNI mice, Von Frey filaments of 2 grams force, score 0-2; assay type: in vivo, mouse; settings: score 0 to 2 (FIG. 22C)
Description: as §1
as §2, with “2 gram Von Frey filaments were used to assess sensitivity to noxious mechanical stimulation, scoring mice responses as follows: 0, no response; 1, visible signs of discomfort without leg withdrawal; 2, withdrawal of the leg.” left out

Molecule | c-Fos nuclear accumulation [2] | c-Fos nuclear localization [2] | responsiveness to noxious heat (mice) | paw withdrawal threshold (PWT) by the Von Frey test (SNI mice [1]) | relief in the SNI model of neuropathic pain (SNI mice [1]) | mechanosensitivity, paw withdrawal threshold by Von Frey test, dose dependence (SNI mice [1]) | mechanosensitivity, Von Frey tests, time dependence (SNI mice [1]) | response of SNI injured animals to a noxious mechanical stimulus (SNI mice [3]) | other results
O=C(O)CCc1cc(C(=O)c2ccc(OC3CCCC3)cc2O)ccc1OCc1ccc2c(=O)[nH]oc2c1 [T-5224] |  |  |  |  |  |  |  |  | response to noxious heat (mice; WT (+/+) mice, 20 mg/kg, i.p. (FIGS. 6J-K)): reduced the response to noxious heat; response to noxious heat (mice; importin α3 null (−/−) mice, 20 mg/kg, i.p. (FIGS. 6J-K)): no additional effect beyond the already existing attenuation; paw withdrawal threshold (PWT) in response to noxious heat (mice; wild-type mice, i.p. at the indicated doses, over eight days post-treatment (FIGS. 7A-B)): reduced paw withdrawal in response to noxious heat; also recorded: most marked effect was observed one day following injection of a dose of 10 mg/kg; paw withdrawal in Von Frey tests (SNI mice [1]; wild type animals one week following induction of SNI, 10 mg/kg (FIG. 18)): did ameliorate the paw withdrawal latency
NCC1(CC(=O)O)CCCCC1 [gabapentin] |  |  |  |  |  |  |  |  | paw withdrawal threshold (PWT) in Von Frey tests (SNI mice [1]; SNI mice, 100 mg/kg intraperitoneal two months following establishment of the model, again one week later (FIG. 2D)): significant amelioration of the phenotype
Cc1nnc(NS(=O)(=O)c2ccc(N)cc2)s1 [sulfamethizole, 4-Amino-N-(5-methyl-1,3,4-thiadiazol-2-yl)benzenesulfonamide] | neither drug had any further effect | significantly reduced c-Fos nuclear accumulation | showed efficacy in the assay | significant effects | time and dose-dependent relief | dose dependent effects | time dependent effects | provided relief in this assay that was comparable to that provided by knockout or knockdown of importin α3 | c-Fos nuclear localization ([2]; listed as Sulfamethizole): Significant reductions in c-Fos nuclear localization
COc1cc([S+](C)[O-])ccc1-c1nc2ncccc2[nH]1 (stereo not drawn) [sulmazole, 2-(2-Methoxy-4-[methylsulfinyl]phenyl)-1H-imidazo(4,5-b)pyridine] | neither drug had any further effect | significantly reduced c-Fos nuclear accumulation | showed efficacy in the assay | significant effects | time and dose-dependent relief | dose dependent effects | time dependent effects | provided relief in this assay that was comparable to that provided by knockout or knockdown of importin α3 | c-Fos nuclear localization ([2]; listed as Sulmazole): Significant reductions in c-Fos nuclear localization
B1 |  |  |  |  |  |  |  |  | response to noxious heat (mice; wild type mice after intrathecal injection of AAV9 construct, vs control construct): reduced noxious heat responses
